Key:
[1] = Stability of heroin and its metabolites in DPBS without sera; assay type: physicochemical
[2] = in humans, Fig. 1a; cited from earlier work
[3] = Stability of heroin and its metabolites in dilute mouse sera; conditions: 24 h
plasma proteins [4] = experiment: Binding of D3-tracers to plasma proteins in dilute week 0 (preimmunized) sera by ED; assay type: in vitro ADME, mouse; conditions: ≥1:400 dilution of week 0 (preimmunized) sera
Method: Week 0 and week 9 sera were considered as negative and anti-hapten sera, respectively. Anti-hapten sera solutions were prepared by diluting the sera in DPBS (1:400, 1:800, or 1:600). Dialysis buffer was prepared by diluting the corresponding negative sera in DPBS (1:400, 1:800, or 1:600). Competitive inhibitors with different initial concentrations were prepared in the dialysis buffer. For the test samples, anti-hapten sera/D3-tracer was run against the negative sera/inhibitors at the same sera dilution. […] For negative controls, negative sera/D3-tracer was run against the negative sera at the same sera dilution.

plasma proteins [5] = conditions: neat plasma/sera; cited from earlier work

6-acetylmorphine [6-AM]
degradation in the absence of sera ([1]; DPBS pH 7.4, 4 °C): No degradation | t1/2 [2]: 22 to 26 min | hydrolysis of 6-AM in dilute sera ([3]; normal mouse sera, ≥1:200 dilutions, 4 °C): not observed

[2H]C([2H])([2H])N1CCC23c4c5ccc(O)c4OC2C(OC(C)=O)C=CC3C1C5 (stereo not shown) [D3-6-AM]
binding to the plasma proteins (plasma proteins [4]): ~0%

[2H]C([2H])([2H])N1CCC23c4c5ccc(O)c4OC2C(O)C=CC3C1C5 (stereo not shown) [D3-morphine]
binding to the plasma proteins (plasma proteins [4]): ~0%

CC(=O)Oc1ccc2c3c1O[C@H]1[C@@H](OC(C)=O)C=C[C@H]4[C@@H](C2)N(C)CC[C@@]341 [heroin]
partial heroin hydrolysis ([1]; absence of sera, DPBS pH 7.4, 4 °C): ~20% | % heroin remained intact ([1]; after 24 h in DPBS (− Sera), pH 7.4, 4 °C): 79.9 ± 2.71% | plasma binding (plasma proteins [5]): ~35% | t1/2 [2]: 3 to 4 min | amount of intact heroin ([3]; 1:400 sera dilution with iso-OMPA and BNPP): ≥ 80% | hydrolysis of heroin in dilute sera ([3]; normal mouse sera, all dilutions (1:25-1:400), 4 °C): extensive hydrolysis

CN1CC[C@]23c4c5ccc(O)c4O[C@H]2[C@@H](O)C=C[C@H]3[C@H]1C5 [morphine]
degradation in the absence of sera ([1]; DPBS pH 7.4, 4 °C): No degradation | degradation of morphine in dilute sera ([3]; normal mouse sera, ≥1:100 dilutions, 4 °C): not observed

— paper PMC4718952, “A simple nonradioactive method for the determination of the binding affinities of antibodies induced by hapten bioconjugates for drugs of abuse” (Analytical and Bioanalytical Chemistry, 2015)
